From patent publication US20210214303A1, “SCORPION VENOM BENZOQUINONE DERIVATIVES AND USES THEREOF” (priority 2018, published 2021)
In brackets after ≈: the same amount, converted by molar mass. Entries after “also recorded” stand apart in the source; their conditions may differ.

Key:
[1] = test system: Mycobacterium tuberculosis multi-drug resistant (MDR) strain; assay: microbe, parasite or virus in culture; assay type: cell-based
[2] = test system: Mycobacterium tuberculosis Multi-Drug-Resistance (MDR) CIBIN99 strain; assay: experimental model of progressive pulmonary tuberculosis; design: species or system BALB/c mice; details: mouse, in vivo

Row | SMILES | MIC [1] [µg/mL] | condition of infected mice / overall effect [2] | reduction of pneumonia (automated histomorphometry, lung surface affected by pneumonia) [2] [%] | tissue damage (pneumonia), histology [2]
1 | COC1=CC(=O)C(SC)=C(SC)C1=O [blue 1,4 benzoquinone, 5-methoxy-2,3-bis(methylthio)cyclohexa-2,5-diene-1,4-dione] | 4 (≈ 17.4 µM) | effective in vivo; also recorded: improvement by not losing weight and not showing piloerection; also recorded: marked improvement in their condition | 50 | less pneumonia; also recorded: clear decrease in tissue damage; also recorded: twofold decrease
2 | COC1=CC(=O)C(SC)=C(OC)C1=O [red 1,4 benzoquinone, 3,5-dimethoxy-2-(methylthio)cyclohexa-2,5-diene-1,4-dione] | > 160 |  |  | 
